Results published in PubChem BioAssay (NCI).
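Abbreviation: GI50, concentration required for 50% inhibition of growth. TGI: concentration producing complete growth inhibition.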

Experiments:
Test in all cases: growth of human tumour cells (NCI), 384-well format
786-0 renal = system: 786-0 renal
A498 renal = system: A498 renal
A549 NSCLC = system: A549 NSCLC
ACHN renal = system: ACHN renal
BT-549 breast = system: BT-549 breast
CAKI-1 renal = system: CAKI-1 renal
CCRF-CEM leukemia = system: CCRF-CEM leukemia
COLO 205 colon = system: COLO 205 colon
DU-145 prostate = system: DU-145 prostate
EKVX NSCLC = system: EKVX NSCLC
HCC-2998 colon = system: HCC-2998 colon
HCT-116 colon = system: HCT-116 colon
HCT-15 colon = system: HCT-15 colon
HL-60(TB) leukemia = system: HL-60(TB) leukemia
HOP-62 NSCLC = system: HOP-62 NSCLC
HOP-92 NSCLC = system: HOP-92 NSCLC
HS 578T breast = system: HS 578T breast
HT29 colon = system: HT29 colon
IGROV1 ovarian = system: IGROV1 ovarian
K-562 leukemia = system: K-562 leukemia
KM12 colon = system: KM12 colon
LOX IMVI melanoma = system: LOX IMVI melanoma
M14 melanoma = system: M14 melanoma
MALME-3M melanoma = system: MALME-3M melanoma
MCF7 breast = system: MCF7 breast
MDA-MB-231 breast = system: MDA-MB-231 breast
MDA-MB-435 melanoma = system: MDA-MB-435 melanoma
MDA-MB-468 breast = system: MDA-MB-468 breast
MOLT-4 leukemia = system: MOLT-4 leukemia
NCI-H226 lung = system: NCI-H226 lung
NCI-H23 lung = system: NCI-H23 lung
NCI-H322M lung = system: NCI-H322M lung
NCI-H460 NSCLC = system: NCI-H460 NSCLC
NCI-H522 lung = system: NCI-H522 lung
NCI/ADR-RES ovarian = system: NCI/ADR-RES ovarian
OVCAR-3 ovarian = system: OVCAR-3 ovarian
OVCAR-4 ovarian = system: OVCAR-4 ovarian
OVCAR-5 ovarian = system: OVCAR-5 ovarian
OVCAR-8 ovarian = system: OVCAR-8 ovarian
PC-3 prostate = system: PC-3 prostate
RPMI-8226 leukemia = system: RPMI-8226 leukemia
RXF 393 renal = system: RXF 393 renal
SF-268 CNS = system: SF-268 CNS
SF-295 CNS = system: SF-295 CNS
SF-539 CNS = system: SF-539 CNS
SK-MEL-28 melanoma = system: SK-MEL-28 melanoma
SK-MEL-5 melanoma = system: SK-MEL-5 melanoma
SK-OV-3 ovarian = system: SK-OV-3 ovarian
SN12C renal = system: SN12C renal
SNB-19 CNS = system: SNB-19 CNS
SNB-75 CNS = system: SNB-75 CNS
SW-620 colon = system: SW-620 colon
T-47D breast = system: T-47D breast
TK-10 renal = system: TK-10 renal
U251 glioblastoma = system: U251 glioblastoma
UACC-257 melanoma = system: UACC-257 melanoma
UACC-62 melanoma = system: UACC-62 melanoma
UO-31 renal = system: UO-31 renal

## COc1ccc(Oc2cc(NCCC(F)(F)F)c3ncc(-c4ccc(C(=O)NC5CC5)c(C)c4)n3n2)c(F)c1F
786-0 renal
  GI50: < 0.01 µM
  TGI: 14.3 µM
A498 renal
  GI50: 0.189 µM
  TGI: 7.86 µM
A549 NSCLC
  GI50: < 0.01 µM
  TGI: 18.4 µM
ACHN renal
  GI50: 0.169 µM
  TGI: 26.9 µM
BT-549 breast
  GI50: 0.256 µM
  TGI: 17 µM
CAKI-1 renal
  GI50: 0.208 µM
  TGI: 2.48 µM
CCRF-CEM leukemia
  GI50: < 0.01 µM
  TGI: < 0.01 µM
COLO 205 colon
  GI50: < 0.01 µM
  TGI: > 100 µM
DU-145 prostate
  GI50: < 0.01 µM
  TGI: > 100 µM
EKVX NSCLC
  GI50: 5.88 µM
  TGI: 84.2 µM
HCC-2998 colon
  GI50: 13.1 µM
  TGI: > 100 µM
HCT-116 colon
  GI50: < 0.01 µM
  TGI: > 100 µM
HCT-15 colon
  GI50: < 0.01 µM
  TGI: 12.2 µM
HL-60(TB) leukemia
  GI50: < 0.01 µM
  TGI: < 0.01 µM
HOP-62 NSCLC
  GI50: < 0.01 µM
  TGI: 4.93 µM
HOP-92 NSCLC
  GI50: 1.16 µM
  TGI: 14.5 µM
HS 578T breast
  GI50: 0.0204 µM
  TGI: 2.32 µM
HT29 colon
  GI50: < 0.01 µM
  TGI: > 100 µM
IGROV1 ovarian
  GI50: 0.337 µM
  TGI: 46.4 µM
K-562 leukemia
  GI50: 0.264 µM
  TGI: > 100 µM
KM12 colon
  GI50: 0.271 µM
  TGI: > 100 µM
LOX IMVI melanoma
  GI50: < 0.01 µM
  TGI: 11.5 µM
M14 melanoma
  GI50: 0.0101 µM
  TGI: 15.2 µM
MALME-3M melanoma
  GI50: 0.182 µM
  TGI: 26.7 µM
MCF7 breast
  GI50: 1.75 µM
  TGI: 85 µM
MDA-MB-231 breast
  GI50: 0.365 µM
  TGI: 30.1 µM
MDA-MB-435 melanoma
  GI50: 0.286 µM
  TGI: 70 µM
MDA-MB-468 breast
  GI50: < 0.01 µM
  TGI: 3.47 µM
MOLT-4 leukemia
  GI50: < 0.01 µM
  TGI: < 0.01 µM
NCI-H226 lung
  GI50: 4.83 µM
  TGI: 54.4 µM
NCI-H23 lung
  GI50: < 0.01 µM
  TGI: 29.6 µM
NCI-H322M lung
  GI50: 2.14 µM
  TGI: > 100 µM
NCI-H460 NSCLC
  GI50: < 0.01 µM
  TGI: 1.17 µM
NCI-H522 lung
  GI50: 0.682 µM
  TGI: 14.3 µM
NCI/ADR-RES ovarian
  GI50: < 0.01 µM
  TGI: 0.568 µM
OVCAR-3 ovarian
  GI50: 0.365 µM
  TGI: 17.5 µM
OVCAR-4 ovarian
  GI50: 13.9 µM
  TGI: 67 µM
OVCAR-5 ovarian
  GI50: 0.977 µM
  TGI: > 100 µM
OVCAR-8 ovarian
  GI50: < 0.01 µM
  TGI: 3.68 µM
PC-3 prostate
  GI50: 1.43 µM
  TGI: 28.8 µM
RPMI-8226 leukemia
  GI50: < 0.01 µM
  TGI: 24.5 µM
RXF 393 renal
  GI50: < 0.01 µM
  TGI: 0.932 µM
SF-268 CNS
  GI50: < 0.01 µM
  TGI: < 0.01 µM
SF-295 CNS
  GI50: 1.41 µM
  TGI: 31.2 µM
SF-539 CNS
  GI50: < 0.01 µM
  TGI: 2.11 µM
SK-MEL-28 melanoma
  GI50: 9.92 µM
  TGI: 40.7 µM
SK-MEL-5 melanoma
  GI50: < 0.01 µM
  TGI: 18.5 µM
SK-OV-3 ovarian
  GI50: 0.459 µM
  TGI: 27 µM
SN12C renal
  GI50: 18.5 µM
  TGI: > 100 µM
SNB-19 CNS
  GI50: 2.8 µM
  TGI: 39.8 µM
SNB-75 CNS
  GI50: 0.0544 µM
  TGI: 13.3 µM
SW-620 colon
  GI50: < 0.01 µM
  TGI: 18.5 µM
T-47D breast
  GI50: 2.11 µM
  TGI: 34.8 µM
TK-10 renal
  GI50: 5.83 µM
  TGI: 62.2 µM
U251 glioblastoma
  GI50: < 0.01 µM
  TGI: 17.4 µM
UACC-257 melanoma
  GI50: 3.09 µM
  TGI: 25.4 µM
UACC-62 melanoma
  GI50: 0.0441 µM
  TGI: 8.83 µM
UO-31 renal
  GI50: < 0.01 µM
  TGI: 20 µM

## CNC(=O)c1cc2c(Oc3ccc(NC(=S)NC(=O)Cc4ccccc4)cc3F)ccnc2cc1OC
786-0 renal
  GI50: 8.3 µM
  TGI: 99.7 µM
A498 renal
  GI50: 8.59 µM
  TGI: 81.7 µM
A549 NSCLC
  GI50: 12.3 µM
  TGI: > 100 µM
ACHN renal
  GI50: 5.11 µM
  TGI: 54.5 µM
BT-549 breast
  GI50: 3.42 µM
  TGI: 9.66 µM
CAKI-1 renal
  GI50: 4.55 µM
  TGI: 17.5 µM
CCRF-CEM leukemia
  GI50: 5.36 µM
  TGI: 28.8 µM
COLO 205 colon
  GI50: 12.1 µM
  TGI: > 100 µM
DU-145 prostate
  GI50: 34.8 µM
  TGI: > 100 µM
EKVX NSCLC
  GI50: 28.9 µM
  TGI: > 100 µM
HCC-2998 colon
  GI50: > 100 µM
  TGI: > 100 µM
HCT-116 colon
  GI50: 21 µM
  TGI: > 100 µM
HCT-15 colon
  GI50: 8.36 µM
  TGI: > 100 µM
HL-60(TB) leukemia
  GI50: 29.2 µM
  TGI: > 100 µM
HOP-62 NSCLC
  GI50: 17.9 µM
  TGI: > 100 µM
HOP-92 NSCLC
  GI50: 1.5 µM
  TGI: 7.58 µM
HS 578T breast
  GI50: 2.49 µM
  TGI: 7.12 µM
HT29 colon
  GI50: 5.67 µM
  TGI: > 100 µM
IGROV1 ovarian
  GI50: 3.03 µM
  TGI: 17 µM
K-562 leukemia
  GI50: 0.486 µM
  TGI: 1.7 µM
KM12 colon
  GI50: 3.4 µM
  TGI: > 100 µM
LOX IMVI melanoma
  GI50: 8.61 µM
  TGI: > 100 µM
M14 melanoma
  GI50: 8.36 µM
  TGI: > 100 µM
MALME-3M melanoma
  GI50: 15.9 µM
  TGI: > 100 µM
MCF7 breast
  GI50: 14.5 µM
  TGI: > 100 µM
MDA-MB-231 breast
  GI50: 7.39 µM
  TGI: 83.2 µM
MDA-MB-435 melanoma
  GI50: 31.1 µM
  TGI: > 100 µM
MDA-MB-468 breast
  GI50: 5.2 µM
  TGI: 25.2 µM
MOLT-4 leukemia
  GI50: 2.2 µM
  TGI: 10.6 µM
NCI-H226 lung
  GI50: 4.01 µM
  TGI: 45.7 µM
NCI-H23 lung
  GI50: 1.95 µM
  TGI: 23.7 µM
NCI-H322M lung
  GI50: 31.9 µM
  TGI: > 100 µM
NCI-H460 NSCLC
  GI50: 20.1 µM
  TGI: > 100 µM
NCI-H522 lung
  GI50: 5.3 µM
  TGI: 27.1 µM
NCI/ADR-RES ovarian
  GI50: 18.8 µM
  TGI: > 100 µM
OVCAR-3 ovarian
  GI50: 17.7 µM
  TGI: > 100 µM
OVCAR-4 ovarian
  GI50: 27.4 µM
  TGI: > 100 µM
OVCAR-5 ovarian
  GI50: 19.9 µM
  TGI: 93.3 µM
OVCAR-8 ovarian
  GI50: 36.2 µM
  TGI: > 100 µM
PC-3 prostate
  GI50: 10.9 µM
  TGI: > 100 µM
RPMI-8226 leukemia
  GI50: 14.7 µM
  TGI: > 100 µM
RXF 393 renal
  GI50: 2.47 µM
  TGI: 6.88 µM
SF-268 CNS
  GI50: 2.5 µM
  TGI: 6.66 µM
SF-295 CNS
  GI50: 2.25 µM
  TGI: 37.2 µM
SF-539 CNS
  GI50: 5.2 µM
  TGI: 27.8 µM
SK-MEL-28 melanoma
  GI50: 29.4 µM
  TGI: > 100 µM
SK-MEL-5 melanoma
  GI50: 8.55 µM
  TGI: 33.1 µM
SK-OV-3 ovarian
  GI50: 9.39 µM
  TGI: 36.2 µM
SN12C renal
  GI50: 2.37 µM
  TGI: 19.5 µM
SNB-19 CNS
  GI50: 49 µM
  TGI: > 100 µM
SNB-75 CNS
  GI50: 1.9 µM
  TGI: 6.95 µM
SW-620 colon
  GI50: 47.2 µM
  TGI: > 100 µM
T-47D breast
  GI50: 5.05 µM
  TGI: 26 µM
TK-10 renal
  GI50: 24.3 µM
  TGI: > 100 µM
U251 glioblastoma
  GI50: 18.8 µM
  TGI: > 100 µM
UACC-257 melanoma
  GI50: 18.9 µM
  TGI: > 100 µM
UACC-62 melanoma
  GI50: 5.44 µM
  TGI: 95.4 µM
UO-31 renal
  GI50: 23 µM
  TGI: > 100 µM
